Consider 2 compounds from patent US7323601B2, “Enanitomers of unsaturated alkyllysophosphonocholines and use as anti-neoplastics” (Research Foundation of the City University of New York, priority 2001, dated 2008).

In one assay the test system is MCF7/ADR tumor cell line. Briefly: Growth inhibition (GI50), MCF7/ADR. The assay is classed as cell-based, human.
For assay [1], the system named is SK-N-MC neuroblastoma cell line. As to the kind of experiment: Proliferation of log-phase cells, SK-N-MC. The assay is classed as cell-based. Conditions: 48 h incubation, 10% FBS-supplemented medium, read-out: IC50 values (drug concentration required to reduce cell growth by 50%). The method, then: (§1) All the cell lines were grown from frozen stocks originally obtained from ATCC. T47D, MDA-MB-468 and MCF-7 (breast cancer cell lines) were grown in DMEM. SK-N-MC and SK-N-SH (neuroblastoma) were grown in minimum essential medium with non-essential amino acids and Earle's balanced salt solution. All media were supplemented with 10% FBS and antibiotics (Ashagbley, A., Samadder, P., Bittman, R., Erukulla, R. K., Byun, H-S., Arthur, G. (I 996) Anticancer Res. 16, 1813-1818).
(§2) The effect of the ET-16-phosphono-TDBs on cell proliferation was conducted as previously described (Ashagbley, A., Samadder, P., Bittman, R., Erukulla, R. K., Byun, H-S., Arthur, G. (1996) Anticancer Res. 16, 1813-1818; and Lu, X., and Arthur, G. (1992) Cancer Res. 52, 2806-2812). The cells were seeded in 24-well dishes at a density of 20,000 cells/well with 10% FBS-supplemented medium. The cell numbers were monitored daily. […] The cell numbers at the time of addition of the drugs were determined with a Coulter ZM counter. After 48 h incubation, the cell numbers were determined and the increase in cell number over the numbers at the time of the addition of the drugs was determined and expressed as a function of the control cells which received no drug. The viability of the cells was assessed by the ability to exclude trypan blue dye.

A further assay relates to MAP kinase. Briefly: MAP kinase phosphorylation in stimulated MCF-7 cells (Western blot). The assay is classed as cell-based. Particulars: 15 μM preincubation 3 h; insulin- and EGF-stimulated MCF-7 cells. The method, then:
(§3) Quiescent MCF-7 cells were preincubated with (“+” in FIGS. 6-8) or without (“−” in FIGS. 6-8) 15 μM of the R or S enantiomer of ET-16-phosphono-TDB (TDB-PC in FIGS. 7-9) in DMEM supplemented with BSA (0.5 mg/mL) for 3 h. The cells were washed twice and stimulated with […] growth factor (EGF) or insulin for various periods. At the end of the incubation, the medium was aspirated, and the cells washed with ice-cold PBS and scraped into ice cold buffer comprising 20 mM Tris-HCl (pH 7.4) 2 mM EGTA, 100 mM β-glycerophosphate, 1 mM Na3VO4, aprotinin (10 μg/mL), leupeptin (10 μg/mL), 0.2 mM aininoethylbenzylsulfonyl fluoride, 0.2 mM benzarnidine, 1 mM dithiothreitol, 1% triton-X-100, and 0.5% NP-40). After ultrasonication, the mixture was centrifuged at 100,000×g for 30 min. The cell lysates were flash frozen and stored at −70° C. until required.
(§4) MAP kinase activity in cell lysates from EGF and insulin-stimulated MCF-7 cells were assessed by Western blot analysis with phospho-specific antibodies according to the instructions provided by the manufacturer (New England Biolabs). PKB/AKT activity in insulin-stimulated MCF-7 cell lysates was also assessed with phospho-specific antibodies by Western blot analysis. Bound antibody was visualized by chemiluminescence using reagents from Boehringer Mannheim and quantitated with a multiimager Fluor S system (BioRad).

In assay [2] the test system is MCF-7 breast epithelial cancer cell line. As to the kind of experiment: Proliferation of log-phase cells, MCF-7. The format is cell-based. Particulars: 48 h incubation, 10% FBS-supplemented medium, read-out: IC50 values (drug concentration required to reduce cell growth by 50%). The method, then: as §1, §2
The subject of assay [3] is MDA-MB-468 breast epithelial cancer cell line. As to the kind of experiment: Proliferation of log-phase cells, MDA-MB-468. The format is cell-based. Particulars: 48 h incubation, 10% FBS-supplemented medium, read-out: IC50 values (drug concentration required to reduce cell growth by 50%). The method, then: as §1, §2
For another assay, the system named is HT29 tumor cell line. As to the kind of experiment: Growth inhibition (GI50), HT29. The format is cell-based, human.
Assay [4] concerns SK-N-SH neuroblastoma cell line. Briefly: Proliferation of log-phase cells, SK-N-SH. The format is cell-based. Particulars: 48 h incubation, 10% FBS-supplemented medium, read-out: IC50 values (drug concentration required to reduce cell growth by 50%). The method, then: as §1, §2
The next assay has as its system U937 tumor cell line. Briefly: Growth inhibition (GI50), U937. The assay is classed as cell-based, human.
Assay [5] concerns normal cell lines as compared to the tumor cell lines. As to the kind of experiment: Growth inhibition, normal versus tumor cell lines. Conditions: normal (NIH-3T3, WI-38) versus tumor cell lines. The assay is classed as cell-based. From the text: (§5) For growth inhibitory evaluation, five human tumor cell lines (U937; HT29; A549; MCF7; MCF7/ADR) and two normal fibroblast cell lines (NIH-3T3, murine; WI-38, human) were used. For comparison, the activity of free L-ET18OCH3 and D-ET18OCH3 was examined.

Assay [6] deals with WI-38 normal fibroblast cell line. Briefly: Growth inhibition (GI50), WI-38. The format is cell-based. Particulars: WI38 normal cell line (human).
Excerpt: as §5

A further assay deals with MCF7 tumor cell line. Briefly: Growth inhibition (GI50), MCF7. The format is cell-based, human.
Another assay concerns A549 tumor cell line. As to the kind of experiment: Growth inhibition (GI50), A549. The assay is classed as cell-based, human.
The subject of assay [7] is T47D breast epithelial cancer cell line. Briefly: Proliferation of log-phase cells, T47D. The assay is classed as cell-based. Particulars: 48 h incubation, 10% FBS-supplemented medium, read-out: IC50 values (drug concentration required to reduce cell growth by 50%). The method, then: as §1, §2
The subject of assay [8] is NIH-3T3 normal fibroblast cell line. As to the kind of experiment: Growth inhibition (GI50), NIH-3T3. The assay is classed as cell-based. Conditions: NIH-3T3 normal cell line (murine).
Excerpt: as §5

Another assay deals with PKB/AKT. As to the kind of experiment: PKB/AKT phosphorylation in stimulated MCF-7 cells (Western blot). The format is cell-based. Conditions: 15 μM preincubation 3 h; insulin- and EGF-stimulated MCF-7 cells. The method, then: as §3, §4

`CCCCCCCCCCCCCCCCOC[C@H](C=CP(=O)([O-])OCC[N+](C)(C)C)OC` [(S)-ET-16-phosphono-TDB, 2′-(Trimethylammonio)ethyl 4-(hexadecyloxy)-3-(S)-methoxy-1-butenephosphonate]: the GI50 in the assay on MCF7/ADR tumor cell line is over 40 µM; in the assay with HT29 tumor cell line, 2.8 µM; in the assay with U937 tumor cell line, 1100 nM; in assay [6] it was 14.4 µM; with MCF7 tumor cell line, 32.4 µM; with A549 tumor cell line it was 9 µM. For the same compound, halving of growth in assay [8] (GI50) required 66.3 µM. Further, the IC50 in assay [1] came out at 2200 nM; in assay [2] it was 1900 nM; in assay [3], 4.2 µM; in [4] it was 1800 nM; in assay [7], 900 nM. Besides, the “inhibition of phosphorylation of MAP kinase” value in the assay with MAP kinase is recorded as “to a greater extent than the less active R enantiomer”. For the same compound, the “selectivity: GI50 values for the normal cell lines as compared to the tumor cell lines” value in assay [5] was “remarkable selectivity”. In the assay with PKB/AKT, the “inhibition of phosphorylation of PKB” value is on record as “to a greater extent than the less active R enantiomer”.
Turning to `CCCCCCCCCCCCCCCCOC[C@@H](C=CP(=O)([O-])OCC[N+](C)(C)C)OC` [(R)-ET-16-phosphono-TDB, 2′-(Trimethylammonio)ethyl 4-(hexadecyloxy)-3-(R)-methoxy-1-butenephosphonate], the GI50 in the assay with MCF7/ADR tumor cell line was over 40 µM; in the assay on HT29 tumor cell line, 5.9 µM; in the assay with U937 tumor cell line it was 2200 nM; in assay [6] it was 57.5 µM; in the assay on MCF7 tumor cell line, 35.1 µM; with A549 tumor cell line it was 15.3 µM. The GI50 in assay [8] was determined as 77.3 µM. Besides, the IC50 in assay [1] is over 5000 nM; in assay [2], 4100 nM; in [3] it was over 5 µM; in [4] it was 2500 nM; in assay [7], over 5000 nM. In addition, in assay [5], the “selectivity: GI50 values for the normal cell lines as compared to the tumor cell lines” value is recorded as “remarkable selectivity”.
